From patent publication US20220395500A1, “SMALL MOLECULE ACTIVATORS OF INTERFERON REGULATORY FACTOR 3 AND METHODS OF USE THEREOF” (Neuralexo, Inc., priority 2020, published 2022)
Like-named read-outs stand apart in the source and are kept apart here.

Tests used:
[1] = tested on: IRF-Lucia luciferase reporter (ISRE) in THP1-Dual cells; experiment: THP1-Dual IRF-Lucia luciferase reporter assay (ISRE activation); type: cell-based, human; conditions: for EC50: Homo sapiens, THP1-Dual, read-out: THP1 IRF EC50; for Average ISRE/NFκB (Range) / Average ISRE % Activation: human THP1 pilot screen, 10 μM, 3 screens; for Average ISRE % Activation: 24 hours, percent of LPS activation signal +/− SD
Method: THP1 Dual (InvivoGen) cell suspensions were cultured in RPMI 1640 (Hyclone, Logan, Utah) supplemented with 10% fetal bovine serum (Hyclone), 100 U/mL Normocin (Invivogen), and 50 U/mL PenStrep (Gibco, Dublin, Ireland) between a density of 7·10^5-2·10^6 cells/mL. Every other passage, media was supplemented with 5 U/mL Blasticidin and 100 U/mL Zeocin to maintain the expression constructs. White, flat-bottom 384-well plates (Greiner, Kremsmunster, Austria, 781080) were seeded with 2.5·10^4 cells/well in a total of 50 μL media containing 5 ng/mL phorbolmyristic acid (PMA) using a Matrix WellMate (Thermo Scientific) dispenser. After 48 hours of incubation at 37° C., media was removed using a BioTek ELx405 CW plate washer set to aspirate and wash each well three times with 65 μL 1×PBS. Plates were reloaded with 50 μL media without PMA and treatments added. Lipopolysaccharide in dimethylsulfoxide (DMSO) was transferred to control wells using a HP D300 microdispenser to a final concentration of 313 ng/mL. Compounds from chemical library plates were copied using a Sciclone (Caliper LifeSciences) mounted with a 384-pin transfer tool to obtain a final concentration of 10 μM. After incubation with treatments for 24 hours, 10 μL of supernatant media from each well was transferred into a white, flat-bottom 384-well plate for luminescence readout and a black-walled, clear flat-bottom 384-well plate for absorbance readout.
Specifically, to enable screening of novel chemical entities (NCEs) in a larger screening effort, a robust high-throughput cell-based assay system for primary hit identification of ISRE activators based on the above-mentioned target validation was desired. Human ISRE activity was verified using a THP-1 monocyte line containing the NF-κB-SEAP and IRF-Lucia luciferase dual reporter (THP1-Dual; Invivogen) that features two reporter genes, SEAP (secreted embryonic alkaline phosphatase) and Lucia luciferase, thereby enabling the simultaneous study of the NF-κB and IRF signalling pathways. The Lucia luciferase reporter is under the control of an ISG54 (interferon-stimulated gene) minimal promoter in conjunction with five IFN-stimulated response elements. The SEAP gene is driven by an IFN-β minimal promoter fused to five copies of the NF-κB consensus transcriptional response element and three copies of the c-Rel binding site. Both reporter proteins are readily measurable in the cell culture supernatant when using QUANTI-LUC™ and QUANTI-Blue SEAP detection reagents.
The responsiveness of the human THP-1 Dual cell line was evaluated in an array of assay conditions to obtain sensitive and reproducible results for the activation of IRF and NF-κB reporters. […] All transfer steps are fully automated using high throughput robotic equipment. Briefly, cells are seeded in differentiation medium using a Matrix WellMate fitted with the WellMate Stacker (Thermo Scientific) and incubated at 37° C. with 5% CO2 for 48 h. Following differentiation, cells are washed using a BioTek ELx405 Select CW plate washer and growth medium added with the Matrix WellMate. Programmed control treatments are added to wells using a D300 digital dispenser fitted with T8+ dispense heads (Hewlett Packard) designed to dispense nanoliter quantities of material. Compounds from library plates are added using a pin tool fitted to a Sciclone ALH 3000 Workstation (Caliper Life Sciences) programmed with Maestro v4.4. After treatment, plates are returned to incubators for 24 hours. To measure reporter expression, supernatant is collected using the Sciclone and dispensed into 2 plates: 1) a white 384-well assay plate for Lucia luminescence measurements and 2) a clear-bottom black 384-well assay plate for SEAP absorbance measurements.

[2] = THP1-Dual cytotoxicity (Cell Titer Glo, ATP); type: cell-based, human; conditions: human, THP1-Dual cells, read-out: Thp1 cytotox CC50
Source text: FIG. 9C is a CC50 (50% cytotoxic concentration) graph of AV-C dependent IRF activation in THP1-Dual cells, determined with an 8-point dose response experiment. Cell viability was monitored based on quantitation of ATP present, as an indicator of metabolically active cells, where luminescence is proportional to the amount of ATP present, using Cell-Titer Glo (Promega).
The OTRADI Small Molecule Library of approximately 246,000 diverse compounds (see below for description) was screened using the THP1-Dual based HTS platform described above. All transfer steps in the screen are fully automated, thus reducing variability. Primary screening included a single data point or dose for each molecule. After data normalization was applied for each assay run, “hit” selection was performed on the plates that pass the quality control (QC) criterion. Hits were defined as samples having values above the activity cutoff determined based on noise level of the assay to reduce false positive rates. In the pilot study discussed above this activity value was >3σ above the ISRE mean with the added criteria of NFκB activation being lower than […] from the mean to identify IRF selective compounds. The ratio of ISRE:NFκB activity was also calculated as a selectivity index for prioritizing hit selection. Primary hits underwent secondary screening to determine the 50% effective concentration (EC50) and 50% cytotoxic concentration (CC50) of these agents using an 8-point dose-response curve in the human THP1-Dual cells. Cytotoxicity was measured in the plate using Cell Titer Glo (Promega). Identified candidate compounds were further screened (orthogonal screen) for cross species activity in the validated mouse J774-Dual assay using an 8-point dose-response format to determine EC50 and CC50 values as well as ISRE:NFκB ratios. A general process flow for the experimental design laid out above is depicted at FIG. 12.

J774-Dual cytotoxicity = type: cell-based, mouse; conditions: mouse, J774-Dual cells, read-out: J774 cytotox CC50
Method: The OTRADI Small Molecule Library of approximately 246,000 diverse compounds (see below for description) was screened using the THP1-Dual based HTS platform described above. All transfer steps in the screen are fully automated, thus reducing variability. Primary screening included a single data point or dose for each molecule. After data normalization was applied for each assay run, “hit” selection was performed on the plates that pass the quality control (QC) criterion. Hits were defined as samples having values above the activity cutoff determined based on noise level of the assay to reduce false positive rates. […] The ratio of ISRE:NFκB activity was also calculated as a selectivity index for prioritizing hit selection. Primary hits underwent secondary screening to determine the 50% effective concentration (EC50) and 50% cytotoxic concentration (CC50) of these agents using an 8-point dose-response curve in the human THP1-Dual cells. Cytotoxicity was measured in the plate using Cell Titer Glo (Promega). Identified candidate compounds were further screened (orthogonal screen) for cross species activity in the validated mouse J774-Dual assay using an 8-point dose-response format to determine EC50 and CC50 values as well as ISRE:NFκB ratios. A general process flow for the experimental design laid out above is depicted at FIG. 12.

[3] = Human Reporter Cell Line, 8-point dose response

Row | Compound | EC50 ([1]; Human Reporter Cell Line THP1) | CC50 ([2]; Human Reporter Cell Line THP1) | CC50 (J774-Dual cytotoxicity; Mouse Reporter Cell Line J774) | also measured
1 | O=C(Nc1ccc(N2CCN(C(=O)c3cccs3)CC2)cc1)c1ccc2cc(Br)ccc2c1 [NA-17] |  |  |  | EC50 [1, 3]: 2.4 µM; CC50 ([2]; Human Reporter Cell Line): 14.6 µM; CC50 (J774-Dual cytotoxicity; Mouse Reporter Cell Line): > 25 µM
2 | COc1ccc(C(=O)Nc2cccc(-c3nc4cc(C)c(C)cc4o3)c2)cc1[N+](=O)[O-] [ND-46] | 3.22 µM | 13.1 µM | 27.9 µM | 
3 | Methapyrilene Hydrochloride [reference compound] |  |  |  | Average ISRE/NFκB (Range) [1]: 1.4 (0.4-2.3)
4 | COc1ccc(C(=O)Nc2nc(-c3cc4ccccc4oc3=O)cs2)cn1 [ND-28] | ~3.3 µM | > 25 µM | > 25 µM | 
5 | COc1ccc2nc(NC(=O)c3ccc(OC)c([N+](=O)[O-])c3)sc2c1 [ND-39] | 2.49 µM | > 25 µM | > 25 µM | 
6 | O=C(Nc1ccc(N2CCN(C(=O)c3cccs3)CC2)cc1)c1ccc(Br)c2ncccc12 [NA-18] |  |  |  | EC50 [1, 3]: 3.08 µM; CC50 ([2]; Human Reporter Cell Line): > 25 µM; CC50 (J774-Dual cytotoxicity; Mouse Reporter Cell Line): > 25 µM
7 | O=C(Nc1ccc(N2CCN(C(=O)c3ccccc3)CC2)cc1)c1ccc(OCc2ccccc2)cc1 [NA-51] |  |  |  | EC50 [1, 3]: ~2.63 µM; CC50 ([2]; Human Reporter Cell Line): 11.3 µM; CC50 (J774-Dual cytotoxicity; Mouse Reporter Cell Line): > 25 µM
8 | Cc1ccc(-c2nc3ccccc3s2)cc1NC(=O)c1ccc(Cl)c([N+](=O)[O-])c1 [ND-64] | 7.27 µM | > 25 µM | > 25 µM | 
9 | COc1ccc(C(=O)Nc2cc(-c3nc4cc(C)cc(C)c4o3)ccc2C)cc1[N+](=O)[O-] [ND-8] | 2.95 µM | > 25 µM | > 25 µM | 
10 | COc1ccc(C(=O)Nc2ccc3oc(-c4cccnc4)nc3c2)cc1[N+](=O)[O-] [ND-43] | 5.1 µM | 20.3 µM | > 25 µM | 
11 | Cc1ccccc1C(=O)N1CCN(c2ccc(NC(=O)c3ccc(OCc4ccccc4)cc3)cc2)CC1 [NA-52] |  |  |  | EC50 [1, 3]: 1.42 µM; CC50 ([2]; Human Reporter Cell Line): > 25 µM; CC50 (J774-Dual cytotoxicity; Mouse Reporter Cell Line): > 25 µM
12 | Cc1cccc([C@H](C)c2cnc[nH]2)c1C [ND-76] | ~0.716 µM | > 25 µM | > 25 µM | 
13 | Cc1cc2nc(-c3ccc(C)c(NC(=O)c4cccc([N+](=O)[O-])c4)c3)oc2cc1C [ND-36] | ~8.05 µM | > 25 µM | > 25 µM | 
14 | COc1ccc(C(=O)Nc2nc(-c3cc4ccccc4oc3=O)co2)c2ccccc12 [ND-18] | 13.5 µM |  |  | 
15 | COc1ccc(C(=O)Nc2cccc(-c3nc4ncccc4o3)c2)cc1[N+](=O)[O-] [ND-41] | 2.04 µM | > 25 µM | > 25 µM | 
16 | COC1=CC(=O)C(O)=C/C1=C\C=C\c1ccccc1 [OTR-0001624-001 (Obtusaquinone), Obtusaquinone, reference compound] |  |  |  | Average ISRE/NFκB (Range) [1]: 0.2 (0.2-0.3); Average ISRE % Activation [1]: 1.7 +/− 0.6%
17 | O=C(Nc1nc(-c2cc3ccccc3oc2=O)cs1)c1ccc(OCc2ccccc2)cc1 [ND-22] | 3.83 µM | 9.79 µM |  | 
18 | CCN(CC)CCCC(C)Nc1c2ccc(Cl)cc2nc2ccc(OC)cc12.Cl.Cl (centres unmarked) [Quinacrine Hydrochloride, reference compound] |  |  |  | Average ISRE/NFκB (Range) [1]: 1.4 (1.0-2.0); Average ISRE % Activation [1]: 5.7 +/− 2.9%
19 | O=C(Nc1ccc(N2CCN(C(=O)c3cccs3)CC2)cc1)c1ccc(OCc2cccnc2)cc1 [NA-61] |  |  |  | EC50 [1, 3]: 2.27 µM
20 | COc1ccc(C(=O)Nc2ccc(Cl)c(-c3nc4cc(C)c(C)cc4o3)c2)cc1[N+](=O)[O-] [ND-45] |  | 12.9 µM | > 25 µM | 
21 | Cc1ccc(C(=O)Nc2nc(C)c(-c3ccccc3)s2)cc1[N+](=O)[O-] [ND-32] |  | > 25 µM | > 25 µM | 
22 | O=C(Cc1cc(Br)cc(Br)c1)Nc1ccc(N2CCN(C(=O)c3cccs3)CC2)cc1 [NA-9] |  |  |  | CC50 ([2]; Human Reporter Cell Line): > 25 µM; CC50 (J774-Dual cytotoxicity; Mouse Reporter Cell Line): > 25 µM
23 | CC(C)CC(=O)c1c(C(C)C)nn2ccccc12 [ND-97] |  | > 25 µM | > 25 µM | 
24 | Cc1cc2nc(-c3ccc(C)c(NC(=O)c4cc([N+](=O)[O-])ccc4Cl)c3)oc2cc1C [ND-33] |  | > 25 µM | > 25 µM | 
25 | O=C(Nc1ccc(N2CCN(C(=O)c3cccs3)CC2)cc1)c1cccc2ccccc12 [NA-11] |  |  |  | CC50 ([2]; Human Reporter Cell Line): > 25 µM; CC50 (J774-Dual cytotoxicity; Mouse Reporter Cell Line): > 25 µM
26 | COc1ccc(C(=O)Nc2nc(-c3cc4ccccc4oc3=O)cs2)cc1[N+](=O)[O-] [ND-29] |  | > 25 µM | > 25 µM | 
